Test results published in paper PMC9909315, “SY-707, an ALK/FAK/IGF1R inhibitor, suppresses growth and metastasis of breast cancer cells” (Acta Biochimica et Biophysica Sinica, 2022).

What was measured:
[1] = system: T47D cells; test: Western blot for cleaved PARP; format: cell-based; settings: various concentrations, 24 h
Protocol: (§1) Equal amounts of cell lysates were loaded onto 10% SDS-PAGE gel and separated by electrophoresis. Separated proteins were then electro-transferred onto polyvinylidene fluoride (PVDF) membranes (Millipore, Bedford, USA). After being blocked with Tris-buffered saline containing 0.1% Tween-20 (TBST) and 5% bovine serum albumin (BSA), the membranes were incubated with primary antibodies at room temperature for 2 hours or at 4°C, then washed with TBST, followed by treatment with horseradish peroxidase (HRP)-conjugated goat anti-rabbit IgG secondary antibody at room temperature for another 1 h. The targeted protein bands were visualized using an enhanced chemiluminescence (ECL) plus system (Thermo Fisher Scientific). Primary antibodies against phospho-FAK (3283, 1:1000 dilution), phospho-ERK (4377, 1:2000 dilution), phospho-AKT (4060, 1:2000 dilution), FAK (3285, 1:1000 dilution), AKT (6703, 1:1000 dilution) and β-Actin (5125, 1:10,0000 dilution) were purchased from Cell Signaling Technology (Beverly, USA) and the HRP-conjugated goat anti-rabbit IgG (ZDR-5306, 1:10,000 dilution) was purchased from Jackson (West Grove, USA ).
(§2) Cells were cultured and treated with SY-707 under the indicated concentrations (0.01, 0.1 and 1 μM respectively) for 24 h, then stained with Annexin-V and 7-AAD for cell apoptosis analysis by Guava flow cytometry.

[2] = system: MCF-7 cells; test: Western blot for cleaved PARP; format: cell-based; settings: MCF-7, various concentrations, 24 h
Protocol: as §1, §2

[3] = target: FAK, Pyk2, LTK, IRK and IGF1R; test: HTRF kinase enzyme assay, summary over several kinases; format: biochemical; settings: around; span over the named kinases
Protocol: Homogeneous time-resolved fluorescence (HTRF) assay was performed to analyze kinase enzyme activity and compound potency using HTRF ® KinEASE ^TM-TK kit (Cisbio Bioassays, Shanghai, China). Compound SY-707 was serially diluted by 3 folds from 1 mM stock solution in DMSO, and 4 μL of the diluted solution of the compounds was added to 96 μL of reaction buffer (50 mM HEPES, pH 7.0, 0.1 mM Na 3VO 4, 0.01% BAS, 5 mM MgCl 2, 1 mM DTT), then 2.5 μL of 4× compound solution and 5 μL of 2× kinases solution were added to a 384-well plate (OptiPlate-384; PerkinElmer, Wellesley, USA ). The resulted solutions were briefly mixed, centrifuged and incubated for 5 min. Finally, 2.5 μL of 4× ATP/TK peptide (ATP at K m for each kinase) solution was added to the reaction system to initiate the reaction. The enzymatic reaction was carried out for 60-120 min at 23°C, then terminated by addition of 5 μL of detection solution containing TK antibody-cryptate and 5 μL of Streptravidin-XL-665. The mixture was incubated for additional 1 h at 23°C. The fluorescent signals were measured with an EnVision multilabel plate reader (PerkinElmer). IC 50 values of the compounds were calculated using the GraFit software (Version 6.0) and presented as the mean of three independent experiments performed in duplicate.

[4] = system: MCF-7 cells; test: Cell cycle analysis (PI, flow cytometry); format: cell-based; settings: MCF-7, 24 h, dose-dependent; decrease of S phase
Protocol: MCF-7 cells were treated with 0.1% DMSO (control) or with SY-707 solution at indicated concentrations for 24 h at 37°C, then the cells were harvested by centrifugation at 350 g and washed twice with PBS. Cell apoptosis was determined using the PE Annexin V Apoptosis Detection kit (BD Biosciences, San Jose, USA) following the manufacture’s guides. Breifly, cells were resuspended with 100 μL of binding buffer containing Annexin V and 7-AAD. After 15 min of incubation at room temperature in the dark, 400 μL of binding buffer was added to the mixture and the cells were analyzed with a Guava flow cytometer (Millipore). Cell cycle arrest was evaluated by incorporation of propidium (PI; Sigma-Aldrich, St Louis, USA) into the permeablized cells. After being treated with DMSO or compounds for 24 h, cells were harvested, washed twice with cold PBS, fixed with ice-cold 70% ethanol, followed by a secondary staining step with staining buffer (0.25 mg/mL RNase, 0.025 mg/mL PI, in PBS) for 1 h at 37°C. Compound regulation of cell-cycle was analyzed using the Guava flow cytometer. Data were analyzed with FlowJo software.

[5] = system: phosphorylation of IGF1R; test: Western blot of IGF1R phosphorylation in T47D cells after IGF1; format: cell-based; settings: 1 h treatment, then 100 ng/mL IGF1 for 10 min, dose-dependent
Protocol: (§3) Equal amounts of cell lysates were loaded onto 10% SDS-PAGE gel and separated by electrophoresis. Separated proteins were then electro-transferred onto polyvinylidene fluoride (PVDF) membranes (Millipore, Bedford, USA). After being blocked with Tris-buffered saline containing 0.1% Tween-20 (TBST) and 5% bovine serum albumin (BSA), the membranes were incubated with primary antibodies at room temperature for 2 hours or at 4°C, then washed with TBST, followed by treatment with horseradish peroxidase (HRP)-conjugated goat anti-rabbit IgG secondary antibody at room temperature for another 1 h. The targeted protein bands were visualized using an enhanced chemiluminescence (ECL) plus system (Thermo Fisher Scientific). […]
(§4) Figure4 Inhibitory effects of SY-707 on the phosphorylation of FAK(A,B) Concentration-dependent inhibition of SY-707 on phosphorylation of FAK in T47D (A) and MCF-7 (B) cells. […] Cell lysates were analyzed by western blot analysis using specific antibodies against p-FAK, p-Pyk2, p-AKT and p-ERK respectively. […] Cell lysates were analyzed by western blot analysis using specific antibodies against p-IGF1R, p-STAT3, p-AKT and p-ERK respectively.

[6] = system: solid cancer cells; test: Cell proliferation assay, summary over the cell line series; format: cell-based; settings: 72 h, read-out: IC50 values (summary over the solid cancer cell lines)
Protocol: MCF-7, T47D, MDA-MB-231, MIA Paca-2, PANC-1, SW620, HT-29, U87MG, and A549 cell lines were purchased from the Cell Bank of Chinese Academy of Science (Shanghai, China). Cells were cultured in DMEM or RPMI-1640 (Gibco, BRL, USA) supplemented with 10% FBS (HyClone, Logan, USA) and 50 IU penicillin/streptomycin in a humidified atmosphere with 5% CO 2 at 37°C. The effects of SY-707 on cell proliferation were measured using CellTiter-Glo ® or CellTiter-Blue ® Cell Viability Assay kits (Promega, Beijing, China). In brief, cells were seeded in 96-well plates at low destiny with 195 μL of medium per well. The stock solutions of compounds were 3-fold serially diluted with DMSO from 10 mM to 0.3 nM, and 4 μL of solution at each concentration was mixed with 96 μL of serum free medium, then 5 μL of the resulted solution was added to each well. […] The luminescence signals were measured using EnVision ® multilabel plate reader (PerkinElmer), and the fluorescent signals were examined using FlexStation 3 (Molecular Devices, Sunnyvale, USA), and the IC 50 values were calculated using Prism ® software (Version 5.0) and presented as the average of three independent experiments performed in duplicate.

[7] = system: phosphorylation of Pyk2 at Tyr402; test: Western blot of Pyk2 phosphorylation in T47D cells; format: cell-based; settings: 1 h treatment
Protocol: as §3, §4

**Q.** What does the source list for `COc1cc(N2CCC(N3CCN(C)CC3)CC2)ccc1Nc1nc2c(c(Nc3ccccc3S(=O)(=O)NC(C)C)n1)CCN2` [SY-707, N-isopropyl-2-((2-((2-methoxy-4-(4-(4-methylpiperazin-1-yl)piperidin-1-yl)phenyl)amino)-6,7-dihydro-5H-pyrrolo[2,3-d]pyrimidin-4-yl)amino)benzenesulfonamide]?
**A.** cleaved PARP [1]: markedly detected; cleaved PARP [2]: markedly detected; IC50 [3]: 1 to 10 nM; cell cycle arrest [4]: pronounced G2/M phase arrest; phosphorylation of IGF1R [5]: block the phosphorylation; IC50 [6]: 0.5 to 10 µM; phosphorylation of Pyk2 at Tyr402 [7]: dose-dependently suppressed
